Test results reported in ChEMBL document CHEMBL3507680, “University of Dundee, Gates Library screen for HepG2 cell viability”.

experiment: Human HepG2 cell viability assay in 384 well format; type: toxicity, cell-based; set-up: dose 125 nL, time 70.5 hour; concentration not given beside the values; settings: HepG2 cells, read-out: Inhibition

Compound	cytotoxicity at 70.5 h [%]
CCc1ccc(C(=O)Nc2cc(N3CCNC3=O)ccc2Cl)o1	-5.46
Cn1cc(CCCNC(=O)NC2CCN(CC(F)(F)F)C2=O)cn1 (centres undefined)	-3.21
Cc1ccc(CCNC(=O)NC2CCN(CC(F)(F)F)C2=O)cn1 (centres undefined)	-5.39
N#Cc1c(F)cccc1NCCCOCC1CCOC1 (centres undefined)	-0.771
N#Cc1cc(F)c(NCCCOCC2CCOC2)c(F)c1 (centres undefined)	7.98
N#Cc1ccc(NCCCOCC2CCCO2)c(F)c1 (centres undefined)	2
COCC(NC(=O)NCc1cccc(Cl)c1)c1ccco1 (centres undefined)	-5.77
Cc1cc(NS(=O)(=O)c2cnc3onc(C)c3c2)no1	0.112
CN(C)CCN(Cc1ccco1)C(=O)Cc1cn2ccsc2n1	-3.81
COCC(NC(=O)NCc1sccc1C)c1ccco1 (centres undefined)	1.36
COc1ccc(C(C)(C)C(=O)NCc2n[nH]c(=O)[nH]2)cc1	-1.62
COc1ccc(S(=O)(=O)NC(=O)c2ccccc2F)cc1OC	1.07
c1cncc(-c2ccnn2CN2CCOCC2)c1	0.876
O=C(Cc1cn2ccsc2n1)N(Cc1ccco1)CC1CCCO1 (centres undefined)	7.91
COC(C)(C)CC(C)NC(=O)NC1CCN(Cc2ccccn2)CC1 (centres undefined)	-0.855
Cc1ccc(NC(=O)N(C)CC(O)COCCOC(C)C)c(Br)c1 (centres undefined)	-4.27
O=C(NCc1cc[nH]n1)N1CCC(Oc2ccccc2Cl)CC1	8.97
Cc1csc(C2(NCC(O)COc3ccc(F)cc3)CCC2)n1 (centres undefined)	-0.482
COCC1CN(C(=O)Nc2cc(-n3cccc3)ccc2F)CCO1 (centres undefined)	7.34
COc1ccccc1CN(C)c1nc2c(cnn2C)c(=O)[nH]1	-10.3
COc1ccc(CN(C)c2nc3c(cnn3C)c(=O)[nH]2)c(OC)c1	18.3
CS(=O)(=O)c1nnc(NC(=O)CCc2ccc(Cl)s2)[nH]1	-10.2
COc1ccc(OC)c(CN(C)c2nc3c(cnn3C)c(=O)[nH]2)c1	42.4
CC(C)N(C)CCNC(=O)NCc1ccccc1-n1cccn1	-7.41
Cc1ccc(C)c(OCc2nnc(SCC3CCCN(C)C3)o2)c1 (centres undefined)	-5.12
Cc1ccc(OCC(=O)N(C)Cc2cccc(F)c2)cn1	-3.84
COc1ccc(Br)cc1CN(C)c1nc2c(cnn2C)c(=O)[nH]1	-10.6

Compound	cytotoxicity at 70.5 h [%]
O=C(Cc1ccc(Cl)cc1)N1CCC(O)(C(F)(F)F)C1 (centres undefined)	-2.11
CN(CCn1cccn1)c1cc(C(F)(F)F)nc(-c2cccnc2)n1	-4.93
Cn1c(SCC2OCCc3ccccc32)n[nH]c1=O (centres undefined)	-8.09
O=C(N1CCC(O)(C(F)(F)F)C1)C1(c2cccc(Cl)c2)CC1 (centres undefined)	-9.29
O=C(CCc1ccc(Cl)cc1)N1CCC(O)(C(F)(F)F)C1 (centres undefined)	-6.2
Cn1cccc(NC(=O)N2CCC(Cc3ccccc3)C2)c1=O (centres undefined)	19.7
CCCn1nc(-c2nc(C3CC3)no2)ccc1=O	5.03
Cc1csc(C2(NCc3ccc(OCC(F)F)cc3)CCCC2)n1	-5.7
FC(F)(F)c1cc(NCCn2ncnn2)nc(-c2cccnc2)n1	-9.6
O=S(=O)(Cc1ccc(F)c(Cl)c1)NC(CO)c1ccco1 (centres undefined)	-11
Cc1ccc(-c2nc(CNc3ccc(C(N)=O)c(C)c3)cs2)o1	-8.76
CC(C)(CCS(C)(=O)=O)CNc1ccc2ccc(F)cc2n1	-2.27
CCC(C(=O)N1CCCSCC1)N1CCCC1=O (centres undefined)	12.1
Cn1cccc(NC(=O)N2CCC(COCc3ccccc3)C2)c1=O (centres undefined)	7.11
O=S(=O)(NCC1CCN(CCN2CCOCC2)C1)c1ccccc1F (centres undefined)	13.9
Cc1ccc2c(c1)OC(C)CN2C(=O)CCc1cccnc1 (centres undefined)	1.51
Cc1ccc2c(c1)OC(C)CN2C(=O)CCc1cscn1 (centres undefined)	0.46
O=C(NCCCN1CCN(c2ncccn2)CC1)NCC1CCCO1 (centres undefined)	-3.85
CCc1nnsc1C(=O)N(C)Cc1ccc(Br)o1	-2.39
CCc1nnsc1C(=O)N(C)Cc1ccc(C)o1	-0.808
O=C(NCCCN1CCN(c2ncccn2)CC1)NCC1CCOC1 (centres undefined)	3.56
Cc1ccc(NC(=O)CSCc2cccnc2)nc1	-1.37
CC1COCCN1C(=O)NCCCn1ccnc1 (centres undefined)	-2.86
CC(=O)N1CCCC(C(=O)N2CCN(Cc3cc(C)on3)CC2)C1 (centres undefined)	2.35
COc1ccc(CNc2c(C)nn(C(C)C)c2C)cc1	13.9
O=C(Cc1ccccc1F)NCC1CCN(CCc2ccccc2)C1 (centres undefined)	-1.68
CC(C)NC(=O)[C@@H]1C[C@H]2OCC[C@H]2N(Cc2ccc3ccccc3n2)C1	12.8
